Results taken from ChEMBL document CHEMBL1153952, “Selective, potent PPARgamma agonists with cyclopentenone core structure” (Bioorg Med Chem Lett, 2009).

How the values were obtained:
[1] = molecular target: T1, Peroxisome proliferator-activated receptor alpha (Homo sapiens, UniProt Q07869); experiment: Agonist activity at PPARalpha ligand binding domain expressed in human HeLa cells co-transfected with Gal4-DBD assessed as transcriptional activation by Gal4 response element-driven luciferase reporter gene assay; type: cell-based
T1 sequence (Q07869 whole entry): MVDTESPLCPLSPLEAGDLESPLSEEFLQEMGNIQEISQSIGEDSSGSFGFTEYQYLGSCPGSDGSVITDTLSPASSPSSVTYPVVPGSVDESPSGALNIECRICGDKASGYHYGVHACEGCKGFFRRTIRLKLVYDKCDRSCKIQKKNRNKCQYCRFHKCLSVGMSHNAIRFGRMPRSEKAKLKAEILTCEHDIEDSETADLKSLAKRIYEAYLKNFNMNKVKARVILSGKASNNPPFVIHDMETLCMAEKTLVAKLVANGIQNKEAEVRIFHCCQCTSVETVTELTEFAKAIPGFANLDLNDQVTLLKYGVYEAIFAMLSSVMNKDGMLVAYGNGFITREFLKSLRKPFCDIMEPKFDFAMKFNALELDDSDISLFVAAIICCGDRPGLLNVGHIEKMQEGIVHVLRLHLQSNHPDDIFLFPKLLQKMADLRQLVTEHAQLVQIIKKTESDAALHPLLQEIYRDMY

[2] = molecular target: T2, Peroxisome proliferator-activated receptor gamma (Homo sapiens, UniProt P37231); type: cell-based, HeLa
T2 sequence (P37231 whole entry): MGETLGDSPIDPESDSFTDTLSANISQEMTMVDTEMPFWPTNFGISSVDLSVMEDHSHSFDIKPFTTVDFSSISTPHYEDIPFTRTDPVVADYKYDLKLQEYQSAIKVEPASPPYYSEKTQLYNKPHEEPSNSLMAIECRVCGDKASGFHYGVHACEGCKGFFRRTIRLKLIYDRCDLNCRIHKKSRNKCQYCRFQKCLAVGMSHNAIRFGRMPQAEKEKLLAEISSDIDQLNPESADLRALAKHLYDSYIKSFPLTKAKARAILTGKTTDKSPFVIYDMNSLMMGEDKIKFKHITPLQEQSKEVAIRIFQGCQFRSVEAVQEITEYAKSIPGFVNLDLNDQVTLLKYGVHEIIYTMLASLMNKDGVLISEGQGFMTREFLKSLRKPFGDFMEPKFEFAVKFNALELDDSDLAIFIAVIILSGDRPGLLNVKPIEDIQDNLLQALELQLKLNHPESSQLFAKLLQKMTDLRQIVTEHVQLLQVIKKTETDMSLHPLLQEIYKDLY

[3] = molecular target: T3, Peroxisome proliferator-activated receptor delta (Homo sapiens, UniProt Q03181)
T3 sequence (Q03181 whole entry): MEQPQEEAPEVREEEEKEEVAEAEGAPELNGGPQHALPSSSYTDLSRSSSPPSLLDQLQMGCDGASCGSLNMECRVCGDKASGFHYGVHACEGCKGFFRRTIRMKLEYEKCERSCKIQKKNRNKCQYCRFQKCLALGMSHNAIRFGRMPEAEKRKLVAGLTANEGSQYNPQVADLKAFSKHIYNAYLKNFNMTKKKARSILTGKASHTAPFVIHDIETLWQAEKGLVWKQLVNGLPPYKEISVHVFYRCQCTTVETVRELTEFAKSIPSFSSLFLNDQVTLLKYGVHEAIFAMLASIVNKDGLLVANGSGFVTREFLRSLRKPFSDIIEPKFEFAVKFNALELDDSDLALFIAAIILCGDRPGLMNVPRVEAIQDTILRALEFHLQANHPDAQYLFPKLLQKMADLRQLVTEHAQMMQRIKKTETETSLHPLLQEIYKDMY

| Compound | EC50 [1] [nM] | EC50 [2] [nM] | EC50 [3] [nM] |
| --- | --- | --- | --- |
| CCCCCCC[C@H]1C(=O)C=C[C@@H]1OCCCCCC(=O)O | 1000 | 4000 | > 10000 |
| CCCCCCC[C@H]1C(=O)C=C[C@H]1OCCCCCC(=O)O | – | 2000 | 2000 |
| CCCCCCC[C@H]1C(=O)C=C(I)[C@@H]1OCCCCCC(=O)O (relative stereo) | 1000 | 30 | 500 |
| CCCCCCC#CC1=CC(=O)[C@H](CCCCCCC)[C@H]1OCCCCCC(=O)O (relative stereo) | 500 | 8000 | 2000 |
| CCCCCCC[C@H]1C(=O)C=C(I)[C@H]1OCCCCCC(=O)O (relative stereo) | > 10000 | 60 | > 10000 |
| CCCCCCC#CC1=CC(=O)[C@H](CCCCCCC)[C@@H]1OCCCCCC(=O)O (relative stereo) | 500 | 4000 | > 10000 |
| CCCCCCCN(CCc1ccc(SC(C)(C)C(=O)O)cc1)C(=O)Nc1ccc(F)cc1F [GSK-9578] | – | – | 1000 |
